Experimental data as given in patent US20240287138A1, “CYCLIC PEPTIDES FOR INHIBITING TNF RECEPTOR 1 ACTIVITY” (Merck Sharp & Dohme LLC, priority 2023, published 2024).
Numbered stars: 1 amine (or outer) side, 2 acyl side, 3 side chain; on linkers, the order of the positions; unused ones are H or OH. Bridge positions count the residues as written; N and C are the ends. Square brackets hold non-standard residues; d marks the D form. Peptide text beside a SMILES is read from it. * marks the point of attachment. Trp(βS-Me,7-OMe) = COc1cccc2c([C@H](C)[C@H](N)C(=O)O)c[nH]c12; Trp(1-CH2COOH) = N[C@@H](Cc1cn(CC(=O)O)c2ccccc12)C(=O)O; Phe(4-CH2CH2COOH) = N[C@@H](Cc1ccc(CCC(=O)O)cc1)C(=O)O; Phe(4-SO2NH2) = N[C@@H](Cc1ccc(S(N)(=O)=O)cc1)C(=O)O; Phe(2-F,4-COOH) = N[C@@H](Cc1ccc(C(=O)O)cc1F)C(=O)O; dPro(trans-4-NMe2) = CN(C)[C@@H]1CN[C@@H](C(=O)O)C1; Trp(7-CN) = N#Cc1cccc2c(C[C@H](N)C(=O)O)c[nH]c12; Trp(7-Cl) = N[C@@H](Cc1c[nH]c2c(Cl)cccc12)C(=O)O; X20 = O=C1NCc2ccc(C[C@H](N[*:1])C(=O)[*:2])cc21; Phe(3-CONH2) = NC(=O)c1cccc(C[C@H](N)C(=O)O)c1; Phe(4-CONH2) = NC(=O)c1ccc(C[C@H](N)C(=O)O)cc1; Phe(4-COOH) = N[C@@H](Cc1ccc(C(=O)O)cc1)C(=O)O; 4Pal(3S-Me) = C[C@@H](c1ccncc1)[C@H](N)C(=O)O; Trp(7-aza) = N[C@@H](Cc1c[nH]c2ncccc12)C(=O)O; Phe(4-CH2NH2) = NCc1ccc(C[C@H](N)C(=O)O)cc1; dPro(trans-4-F) = O=C(O)[C@H]1C[C@H](F)CN1; dPro(4S-NH2) = N[C@@H]1CN[C@@H](C(=O)O)C1; Pip(5R-OH) = O=C(O)[C@@H]1CC[C@@H](O)CN1; X1 = O=C([C@@H]1CC[C@H](N[*:1])C1)[*:2]; Met(O2) = CS(=O)(=O)CC[C@H](N)C(=O)O; NMeT = CN[C@H](C(=O)O)[C@@H](C)O; 4Pal = N[C@@H](Cc1ccncc1)C(=O)O; NMeE = CN[C@@H](CCC(=O)O)C(=O)O; dHyp = O=C(O)[C@H]1C[C@H](O)CN1; Ahp(2) = CCCCC[C@H](N)C(=O)O; NEtAla = CCN[C@@H](C)C(=O)O; αMeS = C[C@](N)(CO)C(=O)O; Carboxymethyl = O=C(O)C*; Nle = CCCC[C@H](N)C(=O)O; Sar = CNCC(=O)O

Molecular target: T1, TNFα-induced NF-κB signal transduction pathway (TNFR1 signaling) in THP-1 cells (Homo sapiens, UniProt P19438)
T1 sequence (P19438 30-455): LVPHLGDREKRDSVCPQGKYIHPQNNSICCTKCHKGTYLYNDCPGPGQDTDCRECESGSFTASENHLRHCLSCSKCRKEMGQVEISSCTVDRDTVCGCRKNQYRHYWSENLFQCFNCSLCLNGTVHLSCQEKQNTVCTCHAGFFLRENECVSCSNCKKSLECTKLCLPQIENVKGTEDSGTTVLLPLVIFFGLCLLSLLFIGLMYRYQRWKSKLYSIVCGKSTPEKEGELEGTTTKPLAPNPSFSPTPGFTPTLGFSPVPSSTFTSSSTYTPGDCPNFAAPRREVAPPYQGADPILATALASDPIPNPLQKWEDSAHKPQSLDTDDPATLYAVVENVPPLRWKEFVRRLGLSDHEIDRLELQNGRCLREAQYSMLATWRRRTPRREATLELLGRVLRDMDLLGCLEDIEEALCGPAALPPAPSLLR
Assay: THP-1 Lucia NF-κB reporter cell assay, inhibition of TNFα-induced NF-κB signaling
Format: cell-based
Conditions: THP-1 NF-κB Lucia reporter cells, 10 ng/mL TNFα, 16-18 h, secreted luciferase; read-out: THP-1 IC50
How it was run: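 IC50 from a 4-parameter logistic fit of secreted luciferase luminescence (QUANTI-Luc), normalised to min/max controls. Reporter THP-1 cells were exposed to peptides for 1 h at 37 °C before 10 ng/mL TNFα (final) was added overnight (16–18 h).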

SMILES | IC50 [nM]
CCCC[C@@H]1NC(=O)[C@@H]2CC[C@@H](C2)NC(=O)[C@H]([C@@H](C)c2c[nH]c3c(OC)cccc23)NC(=O)CN(C)C(=O)[C@H](Cc2ccc(C(N)=O)cc2)NC(=O)[C@H](Cc2ccc(S(N)(=O)=O)cc2)NC(=O)[C@](C)(CO)NC(=O)[C@H](Cc2c[nH]c3c(C#N)cccc23)NC(=O)[C@H](Cc2ccc(C(=O)O)cc2)NC(=O)[C@H](CC(N)=O)NC(=O)[C@H]2C[C@H](N(C)C)CN2C(=O)[C@H](Cc2cn(CC(=O)O)c3ccccc23)NC(=O)[C@@H]2CC[C@@H](O)CN2C(=O)[C@H](Cc2ccncc2)NC1=O [SEQ ID NO. 2] (cyclo([4Pal][Pip(5R-OH)][Trp(1-CH2COOH)][dPro(trans-4-NMe2)]N[Phe(4-COOH)][Trp(7-CN)][αMeS][Phe(4-SO2NH2)][Phe(4-CONH2)][Sar][Trp(βS-Me,7-OMe)][X1][Nle])) | 0.5
CCCC[C@@H]1NC(=O)[C@@H]2CC[C@@H](C2)NC(=O)[C@H]([C@@H](C)c2c[nH]c3c(OC)cccc23)NC(=O)CN(C)C(=O)[C@H](Cc2ccc(OCC(=O)O)cc2)NC(=O)[C@H](Cc2ccc(S(N)(=O)=O)cc2)NC(=O)[C@](C)(CO)NC(=O)[C@H](Cc2c[nH]c3c(C#N)cccc23)NC(=O)[C@H](Cc2ccc(OCC(=O)O)cc2)NC(=O)[C@H](CC(N)=O)NC(=O)[C@H]2C[C@H](N)CN2C(=O)[C@H](Cc2cn(CC(=O)O)c3ccccc23)NC(=O)[C@@H]2CC[C@@H](O)CN2C(=O)[C@H](Cc2ccncc2)NC1=O [SEQ ID NO. 18] (cyclo([4Pal][Pip(5R-OH)][Trp(1-CH2COOH)][dPro(4S-NH2)]NY(Carboxymethyl)[Trp(7-CN)][αMeS][Phe(4-SO2NH2)]Y(Carboxymethyl)[Sar][Trp(βS-Me,7-OMe)][X1][Nle])) | 0.6
CCCC[C@@H]1NC(=O)[C@@H]2CC[C@@H](C2)NC(=O)[C@H]([C@@H](C)c2c[nH]c3c(OC)cccc23)NC(=O)CN(C)C(=O)[C@H](Cc2cccc(C(N)=O)c2)NC(=O)[C@H](Cc2ccc(C(N)=O)cc2)NC(=O)[C@](C)(CO)NC(=O)[C@H](Cc2c[nH]c3c(C#N)cccc23)NC(=O)[C@H](Cc2ccc(C(=O)O)cc2)NC(=O)[C@H](CC(N)=O)NC(=O)[C@H]2C[C@H](F)CN2C(=O)[C@H](Cc2c[nH]c3ccccc23)NC(=O)[C@@H]2CC[C@@H](O)CN2C(=O)[C@H](Cc2ccncc2)NC1=O [SEQ ID NO. 21] (cyclo([4Pal][Pip(5R-OH)]W[dPro(trans-4-F)]N[Phe(4-COOH)][Trp(7-CN)][αMeS][Phe(4-CONH2)][Phe(3-CONH2)][Sar][Trp(βS-Me,7-OMe)][X1][Nle])) | 0.9
CCCC[C@@H]1NC(=O)[C@@H]2CC[C@@H](C2)NC(=O)[C@H]([C@@H](C)c2c[nH]c3c(OC)cccc23)NC(=O)CN(C)C(=O)[C@H](Cc2ccc(C(N)=O)cc2)NC(=O)[C@H](Cc2ccc(C(N)=O)cc2)NC(=O)[C@](C)(CO)NC(=O)[C@H](Cc2c[nH]c3c(C#N)cccc23)NC(=O)[C@H](Cc2ccc3c(c2)C(=O)NC3)NC(=O)[C@H](CC(N)=O)NC(=O)[C@H]2C[C@H](OCC(=O)O)CN2C(=O)[C@H](Cc2cn(CC(=O)O)c3ccccc23)NC(=O)[C@@H]2CC[C@@H](O)CN2C(=O)[C@H](Cc2ccncc2)NC1=O [SEQ ID NO. 22] (cyclo([4Pal][Pip(5R-OH)][Trp(1-CH2COOH)][dHyp](Carboxymethyl)N[X20][Trp(7-CN)][αMeS][Phe(4-CONH2)][Phe(4-CONH2)][Sar][Trp(βS-Me,7-OMe)][X1][Nle])) | 0.6
CCCC[C@@H]1NC(=O)CSC[C@@H](C(N)=O)NC(=O)[C@H]([C@@H](C)c2c[nH]c3c(OC)cccc23)NC(=O)CN(C)C(=O)[C@H](Cc2ccc(O)cc2)NC(=O)[C@H](Cc2ccc(C(=O)O)cc2)NC(=O)[C@](C)(CO)NC(=O)[C@H](Cc2c[nH]c3c(Cl)cccc23)NC(=O)[C@H](Cc2ccncc2)NC(=O)[C@H](CC(N)=O)NC(=O)[C@H](CCC(=O)O)N(C)C(=O)[C@H](Cc2c[nH]c3ncccc23)NC(=O)[C@H]([C@@H](C)O)N(C)C(=O)[C@H](Cc2ccncc2)NC1=O [SEQ ID NO. 29] ({CH2CO}-[Nle][4Pal][NMeT][Trp(7-aza)][NMeE]N[4Pal][Trp(7-Cl)][αMeS][Phe(4-COOH)]Y[Sar][Trp(βS-Me,7-OMe)]C-NH2; thioether N-14) | 3.3
CCCC[C@@H]1NC(=O)[C@@H]2CC[C@@H](C2)NC(=O)[C@H]([C@@H](C)c2c[nH]c3c(OC)cccc23)NC(=O)CN(C)C(=O)[C@H](Cc2ccc(CCC(=O)O)cc2)NC(=O)[C@H](Cc2ccc(S(N)(=O)=O)cc2)NC(=O)[C@](C)(CO)NC(=O)[C@H](Cc2c[nH]c3c(C#N)cccc23)NC(=O)[C@H](Cc2ccc(OCC(=O)O)cc2)NC(=O)[C@H](CC(N)=O)NC(=O)[C@H]2C[C@H](O)CN2C(=O)[C@H](Cc2c[nH]c3ncccc23)NC(=O)[C@@H]2CC[C@@H](O)CN2C(=O)[C@H](Cc2ccncc2)NC1=O [SEQ ID NO. 30] (cyclo([4Pal][Pip(5R-OH)][Trp(7-aza)][dHyp]NY(Carboxymethyl)[Trp(7-CN)][αMeS][Phe(4-SO2NH2)][Phe(4-CH2CH2COOH)][Sar][Trp(βS-Me,7-OMe)][X1][Nle])) | 0.5
CCCC[C@@H]1NC(=O)CSC[C@@H](C(N)=O)NC(=O)[C@H]([C@@H](C)c2c[nH]c3c(OC)cccc23)NC(=O)CN(C)C(=O)[C@H](Cc2ccc(O)cc2)NC(=O)[C@H](Cc2ccc(C(=O)O)cc2)NC(=O)[C@](C)(CO)NC(=O)[C@H](Cc2c[nH]c3c(Cl)cccc23)NC(=O)[C@H](Cc2ccncc2)NC(=O)[C@H](CC(N)=O)NC(=O)[C@H](CCC(=O)O)N(C)C(=O)[C@H](Cc2c[nH]c3ncccc23)NC(=O)[C@H](C)N(CC)C(=O)[C@H](Cc2ccncc2)NC1=O [SEQ ID NO. 38] ({CH2CO}-[Nle][4Pal][NEtAla][Trp(7-aza)][NMeE]N[4Pal][Trp(7-Cl)][αMeS][Phe(4-COOH)]Y[Sar][Trp(βS-Me,7-OMe)]C-NH2; thioether N-14) | 3.1
CCCC[C@@H]1NC(=O)[C@@H]2CC[C@@H](C2)NC(=O)[C@H]([C@@H](C)c2c[nH]c3c(OC)cccc23)NC(=O)CN(C)C(=O)[C@H](Cc2ccc(C(=O)O)cc2F)NC(=O)[C@H](Cc2ccc(C(N)=O)cc2)NC(=O)[C@](C)(CO)NC(=O)[C@H](Cc2c[nH]c3c(Cl)cccc23)NC(=O)[C@H](Cc2ccc(C(=O)O)cc2F)NC(=O)[C@H](CC(N)=O)NC(=O)[C@H]2C[C@H](O)CN2C(=O)[C@H](Cc2c[nH]c3ccccc23)NC(=O)[C@@H]2CC[C@@H](O)CN2C(=O)[C@H](Cc2ccncc2)NC1=O [SEQ ID NO. 41] (cyclo([4Pal][Pip(5R-OH)]W[dHyp]N[Phe(2-F,4-COOH)][Trp(7-Cl)][αMeS][Phe(4-CONH2)][Phe(2-F,4-COOH)][Sar][Trp(βS-Me,7-OMe)][X1][Nle])) | 0.6
CCCC[C@@H]1NC(=O)[C@@H]2CC[C@@H](C2)NC(=O)[C@H]([C@@H](C)c2c[nH]c3c(OC)cccc23)NC(=O)CN(C)C(=O)[C@H](Cc2ccc(C(N)=O)cc2)NC(=O)[C@H](Cc2ccc(C(N)=O)cc2)NC(=O)[C@](C)(CO)NC(=O)[C@H](Cc2c[nH]c3c(C#N)cccc23)NC(=O)[C@H](Cc2ccc(C(=O)O)cc2)NC(=O)[C@H](CC(N)=O)NC(=O)[C@H]2C[C@H](O)CN2C(=O)[C@H](Cc2c[nH]c3ccccc23)NC(=O)[C@@H]2CC[C@@H](O)CN2C(=O)[C@H](Cc2ccncc2)NC1=O [SEQ ID NO. 45] (cyclo([4Pal][Pip(5R-OH)]W[dHyp]N[Phe(4-COOH)][Trp(7-CN)][αMeS][Phe(4-CONH2)][Phe(4-CONH2)][Sar][Trp(βS-Me,7-OMe)][X1][Nle])) | 0.6
CCCC[C@@H]1NC(=O)[C@@H]2CC[C@@H](C2)NC(=O)[C@H]([C@@H](C)c2c[nH]c3c(OC)cccc23)NC(=O)CN(C)C(=O)[C@H](Cc2ccc(CN)cc2)NC(=O)[C@H](Cc2ccc(C(N)=O)cc2)NC(=O)[C@](C)(CO)NC(=O)[C@H](Cc2c[nH]c3c(C#N)cccc23)NC(=O)[C@H](Cc2ccc(C(=O)O)cc2)NC(=O)[C@H](CC(N)=O)NC(=O)[C@H]2C[C@H](O)CN2C(=O)[C@H](Cc2c[nH]c3ccccc23)NC(=O)[C@@H]2CC[C@@H](O)CN2C(=O)[C@H](Cc2ccncc2)NC1=O [SEQ ID NO. 48] (cyclo([4Pal][Pip(5R-OH)]W[dHyp]N[Phe(4-COOH)][Trp(7-CN)][αMeS][Phe(4-CONH2)][Phe(4-CH2NH2)][Sar][Trp(βS-Me,7-OMe)][X1][Nle])) | 0.7
CCCCC[C@@H]1NC(=O)[C@@H]2CC[C@@H](C2)NC(=O)[C@H]([C@@H](C)c2c[nH]c3c(OC)cccc23)NC(=O)CN(C)C(=O)[C@H](Cc2ccc(C(N)=O)cc2)NC(=O)[C@H](Cc2ccc(C(N)=O)cc2)NC(=O)[C@](C)(CO)NC(=O)[C@H](Cc2c[nH]c3c(C#N)cccc23)NC(=O)[C@H](Cc2ccc(C(=O)O)cc2)NC(=O)[C@H](CC(N)=O)NC(=O)[C@H]2C[C@H](O)CN2C(=O)[C@H](Cc2c[nH]c3ccccc23)NC(=O)[C@H](CCS(C)(=O)=O)NC(=O)[C@H]([C@@H](C)c2ccncc2)NC1=O [SEQ ID NO. 49] (cyclo([Ahp(2)][4Pal(3S-Me)][Met(O2)]W[dHyp]N[Phe(4-COOH)][Trp(7-CN)][αMeS][Phe(4-CONH2)][Phe(4-CONH2)][Sar][Trp(βS-Me,7-OMe)][X1])) | 0.7
